Entries after “also recorded” stand apart in the source; their conditions may differ. Marks after values point to notes of the source that are not given here.
What was measured:
CD8^+ T cells = experiment: IFN-γ Enzyme-linked ImmunoSpot of CD8+ T cells with C1R or C1R.Qa-1^b antigen-presenting cells; type: cell-based, K^b−/−D^b−/− mice; conditions: in the presence of C1R.Qa-1^b cells
Experimental: FIG. 1A-1C. Portion of CD8^+ T cells reactive to the pool of overlapping peptides (OLPs) covering the whole length of mouse MOG was Qa-1^b restricted. (A) A schematic view of the mouse MOG OLP library. 15mer peptides across the whole length of mouse MOG (247 amino acids) and overlapped by 11 amino acids were synthesized. A pool of the 59 OLPs (“MOG_pool”) at a concentration of 4.2 μg/ml for each peptide was then generated for stimulating CD8^+ T cells purified from K^b−/−D^b−/− mice. (B) Experimental design for Enzyme-linked ImmunoSpot assay in “C”: CD8^+ T cells purified from K^b−/−D^b−/− mice were stimulated with the MOG_pool in vitro on a weekly basis. Before being stimulated each time, the CD8^+ T cells were monitored for response to the MOG_pool, using IFN-γ Enzyme-linked ImmunoSpot, in the presence of either C1R or C1R.Qa-1^b cells as antigen presenting cells. (C) Enzyme-linked ImmunoSpot data on day 7 were shown and were representative of three independent experiments. The number at the upper left corner of each well is the absolute number of IFN-γ spot forming cells (SFCs) in the corresponding well (50,000 CD8 T cells/well).
FIG. 2A-2F. Recognition of multiple OLPs by the MOG_pool-reactive CD8^+ T cell lines depended on Qa-1^b. (A-D) MOG_pool-reactive CD8^+ T cell lines were generated as described in FIG. 1. […]

Qa-1^b = Qa-1^b (Mus musculus, UniProt P06339); experiment: In vitro refolding of peptide with recombinant Qa-1^b protein and β2 microglobulin; type: binding; conditions: 10° C., four days; size exclusion, anion exchange, tetramer formation
Experimental: FIG. 4A-4D. MOG196 can bind to Qa-1^b and stimulate MOG196-specific Qa-1^b-restricted CD8^+ T cells. (A) MOG196 was incubated with recombinant Qa-1^b and β2 microglobulin in a protein refolding buffer at 10° C. under gentle agitation (60 rpm) for four days. The solution was separated by a size exclusion column. Peak “A” and “B” represented typical non-specific protein aggregates and correctly refolded MOG196/Qa-1^b monomer, respectively. (B) Monomers in peak B of panel “A” were further analyzed by an anion exchange chromatography. (C) Proteins in peaks “A”, “B1”, and “B2” were biotinylated and portions of the biotinylated proteins were incubated with streptavidin (SA) to examine formation of tetramers. The biotinylated proteins and corresponding tetramers were analyzed in a non-denature protein gel. Arrows show protein bands for MOG196/Qa-1^b monomers. “−”: without SA; “+”: with SA; “pk A”: peak A; “pk B1”: peak B1; “pk B2“ ” peak B2; “Std”: a protein standard. […] The CD8^+ T cells were analyzed for binding to Qa-1^b/MOG196 tetramer at days 0, 7, and 14. […]
MOG196 binds to Qa-1^b and activates MOG196—specific Qa-1^b—restricted CD8^+ T cells in vitro. […] Subsequently, the biotinylated proteins and streptavidin-conjugated tetramers were analyzed in a non-denature protein gel. […]

[1] = test system: MOG196-specific Qa-1^b-restricted CD8^+ T cells; experiment: In vitro stimulation of CD8+ T cells with MOG196-pulsed antigen-presenting cells, Qa-1^b/MOG196 tetramer staining; type: cell-based; conditions: weekly stimulation with MOG196-pulsed APCs from K^b−/−d^b−/− or C57Bl/6 mice; beginning on day 14
Experimental: FIG. 4A-4D. MOG196 can bind to Qa-1^b and stimulate MOG196-specific Qa-1^b-restricted CD8^+ T cells. (A) MOG196 was incubated with recombinant Qa-1^b and β2 microglobulin in a protein refolding buffer at 10° C. under gentle agitation (60 rpm) for four days. The solution was separated by a size exclusion column. Peak “A” and “B” represented typical non-specific protein aggregates and correctly refolded MOG196/Qa-1^b monomer, respectively. (B) Monomers in peak B of panel “A” were further analyzed by an anion exchange chromatography. (C) Proteins in peaks “A”, “B1”, and “B2” were biotinylated and portions of the biotinylated proteins were incubated with streptavidin (SA) to examine formation of tetramers. The biotinylated proteins and corresponding tetramers were analyzed in a non-denature protein gel. Arrows show protein bands for MOG196/Qa-1^b monomers. […] The CD8^+ T cells were analyzed for binding to Qa-1^b/MOG196 tetramer at days 0, 7, and 14. […]
Multichromatic flow cytometry: Briefly, about 0.5-1×10^6 cells in a FACS buffer (PBS containing 1% FBS and 0.05% sodium azide) were stained with various fluorescence-conjugated antibodies specific for the desired cell surface proteins or with tetramers at 4′C for 30 min. The stained cells were washed twice in the FACS buffer before being analyzed on a BD FACSAria II. […]

[2] = test system: Qa-1^b/MOG196 tetramer^+CD8^+ T cells; experiment: CD122 and Ly49 expression on Qa-1^b/MOG196 tetramer+ CD8+ T cells after immunization with MOG196-pulsed DC2.4 cells; type: in vivo, C57BL/6 mice; conditions: intravenous MOG196-pulsed DC2.4 cells at days 0 and 10, analysis ten days after last immunization
Description: FIG. 7A-7G. Immunization with DCs pulsed with MOG196 activates Qa-1^b/MOG196 tetramer^+ cells that specifically accumulate in cervical lymph nodes. (A) C57BL/6 mice (5 mice/group) were immunized with MOG35-55 for EAE. […] (B) Representative plots of Qa-1^b/MOG196tetramer^+ cells among CD8^+ T cells in cervical lymph nodes and spleens. (C) Cumulative data of Qa-1^b/MOG196tetramer^+ cells from five mice. *P<0.05. Two-way ANOVA test. (D) Representative plots of I-A^b/MOG38-49 tetramer^+ cells among CD8^− T cells in cervical lymph nodes and spleens. (E) Cumulative data of I-A^b/MOG38-49 tetramer^+ cells from five mice. *P<0.05. Two-way ANOVA test. (F) Experimental design for “G”: C57BL/6 mice were intravenously immunized with MOG196-pulsed DC2.4 cells at days 0 and 10. […]
Multichromatic flow cytometry: Briefly, about 0.5-1×10^6 cells in a FACS buffer (PBS containing 1% FBS and 0.05% sodium azide) were stained with various fluorescence-conjugated antibodies specific for the desired cell surface proteins or with tetramers at 4′C for 30 min. The stained cells were washed twice in the FACS buffer before being analyzed on a BD FACSAria II.
CD122 and Ly49 were expressed in a portion of the Qa-1^b/MOG196 tetramer+ cells. […] Expression of these two markers on the Qa-I^b/MOG196 tetramer+ cells was analyzed.

- binding to Qa-1^b (refolding into MOG196/Qa-1^b/β2m monomer) (Qa-1^b): could bind to Qa-1^b
Sequence: IICYNWLHR [MOG196]
- stimulation of an OLP105-reactive CD8^+ T cell line by truncated OLP105 peptides (IFN-γ SFCs) (CD8^+ T cells): minimal and optimal epitope in OLP105; also recorded: highest response
- Qa-1^b/MOG196 tetramer+ cells in CD8^+ T cell lines [1]: could be detected
- tetramer+ cells expressing CD122 [2]: about 22.6%
- tetramer+ cells expressing both CD122 and Ly49 [2]: about 7.2%

Reference: patent US20230312670A1, “MYELIN OLIGODENDROCYTE GLYCOPROTEIN-SPECIFIC PEPTIDE FOR THE TREATMENT OR PREVENTION OF MULTIPLE SCLEROSIS” (LOMA LINDA UNIVERSITY, priority 2016, published 2023)
